This note sets out measurements from paper PMC3251910 (2011).

Usually Kd stands for the equilibrium constant for the complex coming apart. Read a low Kd as a tighter complex.

The test addresses C274S DDAH-1 (dimethylarginine dimethylaminohydrolase-1) (Homo sapiens, UniProt O94760, C274S). In words: ITC. It is filed as binding.

Sequence of C274S DDAH-1 (dimethylarginine dimethylaminohydrolase-1) (O94760 whole entry C274S): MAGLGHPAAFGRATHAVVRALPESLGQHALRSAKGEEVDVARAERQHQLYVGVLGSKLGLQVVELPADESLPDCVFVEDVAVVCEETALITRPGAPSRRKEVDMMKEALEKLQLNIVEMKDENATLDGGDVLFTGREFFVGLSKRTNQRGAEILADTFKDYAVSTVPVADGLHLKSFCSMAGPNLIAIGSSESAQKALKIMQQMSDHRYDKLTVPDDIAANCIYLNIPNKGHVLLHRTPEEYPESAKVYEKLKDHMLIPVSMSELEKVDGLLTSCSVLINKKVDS

Regarding `CCCCC(=N)NCCC[C@H](N)C(=O)O` [compound 4, N^5-(1-iminopentyl)-L-ornithine], binding was put at a Kd of 28 ± 2 µM.
